We go through 19 molecules from US12371428B2 (Exelixis, Inc., priority 2019, dated 2025).

One may read the IC50 as the concentration that inhibits the measured activity by half.

In assay [1] the target is KDR (phospho-KDR, VEGF165-stimulated HUVEC cells) (Homo sapiens (Human), UniProt P35968). The assay can be described thus: KDR autophosphorylation ELISA in HUVEC cells (Example G). As to conditions: cellular activity; KDR autophosphorylation ELISA in HUVEC cells. In kind it is cell-based. The method in brief:
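HUVEC cells, serum-starved 24 h, were treated 1 h with an 8-point compound dilution (0.3% DMSO) and then stimulated with 100 ng/mL VEGF165 for 5 min. Phospho-KDR in lysates was quantified by sandwich ELISA against a phospho-KDR standard. IC50 from a 4-parameter logistic fit, normalised between stimulated DMSO and unstimulated controls.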
On the technique in general: An ELISA detects its analyte on a solid surface through an enzyme-linked reagent.

Assay [2] deals with Mer (phospho-Mer, MERTK-transfected 293A cells) (Homo sapiens (Human), UniProt Q12866). The assay can be described thus: Mer autophosphorylation ELISA in transient transfected 293A cells (Example H). In kind it is cell-based. The settings on record: cellular activity; Mer autophosphorylation ELISA in transient transfected 293A cells. In outline:
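293A cells transiently transfected with human MERTK were treated 1 h in serum-free medium with an 8-point compound dilution (0.3% DMSO final). Lysates were assayed by phospho-Mer sandwich ELISA against a phospho-Mer standard; IC50 came from a 4-parameter logistic fit, normalised to DMSO (100%) and reference-inhibitor (0%) controls.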

The target in assay [3] is Human MER (residues 528-999) (Homo sapiens (Human), UniProt Q12866). Description: Human Mer kinase assay, HTRF KinEase (Example C-2). In kind it is biochemical. As to conditions: protocol of Example C-2 (other compounds). In outline:
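Recombinant MER 528-999 (1 ng/well) in buffer with 5 mM MgCl2 and 1 mM DTT was reacted with biotinylated peptide and ATP at Km (40 μM) for 60 min at room temperature. EDTA stop with SA-XL665 and Eu3+ TK antibody, then 665/620 nm HTRF read; IC50 from 4-parameter fit.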

The target in assay [4] is Human KDR (residues 790-1356) (Homo sapiens (Human), UniProt P35968). Description: Human KDR kinase assay, HTRF KinEase (Example B-2). As to conditions: protocol of Example B-2 (other compounds). In kind it is biochemical. The method in brief: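 Human KDR residues 790-1356 (0.1 ng/well) in buffer with 5 mM MgCl2, 1 mM MnCl2, 1 mM DTT, biotinylated peptide substrate, ATP at Km (4.0 μM), 3% DMSO, 10 compound concentrations; 40 min, room temperature. EDTA stop, streptavidin-XL665/Eu-TK antibody HTRF read 665/620 nm; 4-parameter IC50.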
Human KDR (residues 790-1356), sequence (P35968 790-1356): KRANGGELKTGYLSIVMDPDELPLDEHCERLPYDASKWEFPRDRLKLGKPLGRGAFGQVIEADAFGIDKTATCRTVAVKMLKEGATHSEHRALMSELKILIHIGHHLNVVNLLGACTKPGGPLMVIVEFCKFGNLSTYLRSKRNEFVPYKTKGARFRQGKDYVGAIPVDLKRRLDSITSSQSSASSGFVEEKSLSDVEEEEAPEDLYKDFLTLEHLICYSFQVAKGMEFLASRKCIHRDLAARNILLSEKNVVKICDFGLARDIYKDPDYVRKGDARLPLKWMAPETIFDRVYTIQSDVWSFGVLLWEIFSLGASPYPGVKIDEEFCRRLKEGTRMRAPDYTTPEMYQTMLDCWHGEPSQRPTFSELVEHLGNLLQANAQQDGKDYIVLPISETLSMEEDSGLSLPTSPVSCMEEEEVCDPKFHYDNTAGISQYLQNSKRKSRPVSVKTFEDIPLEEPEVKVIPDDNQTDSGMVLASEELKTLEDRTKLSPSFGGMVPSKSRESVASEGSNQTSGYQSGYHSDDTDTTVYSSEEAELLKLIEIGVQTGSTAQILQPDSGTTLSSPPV
On the technique in general: Time-resolved FRET reads energy transfer from a long-lived donor to a nearby acceptor.

Mer (phospho-Mer, MERTK-transfected 293A cells), sequence (Q12866 21-999): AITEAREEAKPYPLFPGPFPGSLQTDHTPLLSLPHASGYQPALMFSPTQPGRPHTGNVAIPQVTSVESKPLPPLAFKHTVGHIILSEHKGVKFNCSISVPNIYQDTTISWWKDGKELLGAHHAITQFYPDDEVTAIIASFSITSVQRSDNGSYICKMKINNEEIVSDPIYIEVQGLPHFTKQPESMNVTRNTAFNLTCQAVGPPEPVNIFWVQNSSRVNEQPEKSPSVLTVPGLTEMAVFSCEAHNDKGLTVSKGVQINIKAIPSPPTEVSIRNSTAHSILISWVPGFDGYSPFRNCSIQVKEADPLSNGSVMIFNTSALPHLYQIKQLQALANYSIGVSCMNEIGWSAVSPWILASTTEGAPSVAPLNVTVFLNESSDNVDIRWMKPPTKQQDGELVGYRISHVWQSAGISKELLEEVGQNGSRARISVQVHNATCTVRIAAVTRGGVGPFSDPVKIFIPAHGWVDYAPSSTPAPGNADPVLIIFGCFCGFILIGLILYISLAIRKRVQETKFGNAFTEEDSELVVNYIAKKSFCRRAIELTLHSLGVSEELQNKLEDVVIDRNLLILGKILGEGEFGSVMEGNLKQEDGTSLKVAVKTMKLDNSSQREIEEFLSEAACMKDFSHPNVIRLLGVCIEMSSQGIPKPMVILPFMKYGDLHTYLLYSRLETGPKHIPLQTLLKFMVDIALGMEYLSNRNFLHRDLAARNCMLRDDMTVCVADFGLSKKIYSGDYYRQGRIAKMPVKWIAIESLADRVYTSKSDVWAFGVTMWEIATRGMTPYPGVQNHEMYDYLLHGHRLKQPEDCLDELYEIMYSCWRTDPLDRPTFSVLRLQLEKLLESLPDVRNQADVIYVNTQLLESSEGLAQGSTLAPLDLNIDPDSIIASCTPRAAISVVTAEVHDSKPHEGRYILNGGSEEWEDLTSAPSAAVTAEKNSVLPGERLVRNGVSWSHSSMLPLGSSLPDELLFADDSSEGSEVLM
Human MER (residues 528-999), sequence (Q12866 528-999): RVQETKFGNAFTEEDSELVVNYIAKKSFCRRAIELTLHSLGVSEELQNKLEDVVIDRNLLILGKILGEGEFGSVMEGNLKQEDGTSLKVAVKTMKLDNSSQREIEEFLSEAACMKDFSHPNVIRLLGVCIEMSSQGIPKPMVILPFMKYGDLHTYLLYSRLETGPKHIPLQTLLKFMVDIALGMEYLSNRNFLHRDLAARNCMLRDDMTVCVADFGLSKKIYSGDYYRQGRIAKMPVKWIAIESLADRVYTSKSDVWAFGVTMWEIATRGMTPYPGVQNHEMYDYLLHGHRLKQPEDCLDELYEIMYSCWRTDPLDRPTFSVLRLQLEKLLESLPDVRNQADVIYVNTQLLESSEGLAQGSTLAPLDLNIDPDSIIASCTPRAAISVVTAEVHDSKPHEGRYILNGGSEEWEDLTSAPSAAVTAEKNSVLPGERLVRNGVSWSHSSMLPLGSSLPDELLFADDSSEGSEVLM
KDR (phospho-KDR, VEGF165-stimulated HUVEC cells), sequence (P35968 20-1356): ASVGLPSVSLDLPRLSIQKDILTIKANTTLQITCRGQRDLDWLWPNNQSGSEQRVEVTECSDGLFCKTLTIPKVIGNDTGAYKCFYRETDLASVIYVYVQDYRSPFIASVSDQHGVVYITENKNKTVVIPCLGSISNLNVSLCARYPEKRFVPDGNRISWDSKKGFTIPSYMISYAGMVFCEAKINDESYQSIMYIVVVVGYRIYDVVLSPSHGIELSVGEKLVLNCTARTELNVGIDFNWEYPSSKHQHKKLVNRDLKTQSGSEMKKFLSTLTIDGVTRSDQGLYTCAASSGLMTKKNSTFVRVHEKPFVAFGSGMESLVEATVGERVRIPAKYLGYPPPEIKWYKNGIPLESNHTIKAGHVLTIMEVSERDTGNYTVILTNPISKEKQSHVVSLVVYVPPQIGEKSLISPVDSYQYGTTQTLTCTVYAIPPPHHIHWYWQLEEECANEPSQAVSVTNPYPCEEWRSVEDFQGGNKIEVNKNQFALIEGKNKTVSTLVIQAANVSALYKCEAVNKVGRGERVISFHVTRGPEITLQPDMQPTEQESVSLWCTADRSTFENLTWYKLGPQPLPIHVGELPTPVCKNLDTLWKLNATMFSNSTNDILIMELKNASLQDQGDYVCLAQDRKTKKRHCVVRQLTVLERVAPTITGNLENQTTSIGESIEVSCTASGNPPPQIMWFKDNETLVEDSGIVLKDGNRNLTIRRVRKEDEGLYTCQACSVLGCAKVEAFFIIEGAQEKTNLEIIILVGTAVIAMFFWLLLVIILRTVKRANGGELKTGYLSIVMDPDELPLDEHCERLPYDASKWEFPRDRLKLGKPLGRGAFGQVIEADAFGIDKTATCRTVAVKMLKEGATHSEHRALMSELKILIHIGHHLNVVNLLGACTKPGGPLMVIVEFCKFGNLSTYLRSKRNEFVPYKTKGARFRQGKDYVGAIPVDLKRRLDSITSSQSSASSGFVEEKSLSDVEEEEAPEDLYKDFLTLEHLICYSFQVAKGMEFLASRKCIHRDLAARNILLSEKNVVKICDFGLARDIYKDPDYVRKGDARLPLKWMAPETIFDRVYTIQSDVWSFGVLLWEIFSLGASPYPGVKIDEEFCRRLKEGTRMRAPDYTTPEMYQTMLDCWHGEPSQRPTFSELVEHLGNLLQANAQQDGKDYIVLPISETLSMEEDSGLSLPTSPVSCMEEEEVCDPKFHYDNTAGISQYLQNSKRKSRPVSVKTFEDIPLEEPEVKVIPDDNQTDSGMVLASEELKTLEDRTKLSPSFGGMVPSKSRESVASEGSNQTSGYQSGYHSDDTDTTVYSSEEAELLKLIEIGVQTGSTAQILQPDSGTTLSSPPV

`Cc1cc(C)n(-c2ccc(F)cc2)c(=O)c1C(=O)Nc1ccc(Oc2ccnc3cccnc23)c(F)c1` [Compound 295, N-[3-Fluoro-4-(1,5-naphthyridin-4-yloxy)phenyl]-1-(4-fluorophenyl)-4,6-dimethyl-2-oxopyridine-3-carboxamide]: the IC50 in assay [1], in assay [2], in assay [3] and in assay [4] was < 100 nM in each case.

Consider `COc1ccc2nccc(Oc3ccc(NC(=O)c4c(C)cc(C)n(-c5ccc(F)cc5C)c4=O)cc3F)c2n1` [Compound 296, N-[3-Fluoro-4-[(6-methoxy-1,5-naphthyridin-4-yl)oxy]phenyl]-1-(4-fluoro-2-methylphenyl)-4,6-dimethyl-2-oxopyridine-3-carboxamide], for which the IC50 in assay [1] is < 100 nM; in assay [2] it was < 100 nM; in assay [3] it was < 100 nM; in assay [4], 100 to 300 nM.

Consider `Cc1ccc2nccc(Oc3ccc(NC(=O)c4c(C)cc(C)n(-c5ccc(F)cc5)c4=O)cc3F)c2n1` [Compound 297, N-[3-Fluoro-4-[(6-methyl-1,5-naphthyridin-4-yl)oxy]phenyl]-1-(4-fluorophenyl)-4,6-dimethyl-2-oxopyridine-3-carboxamide], for which the IC50 in assay [1], in assay [2], in assay [3] and in assay [4] was < 100 nM in each case.

Turning to `COc1cc2nccc(Oc3ccc(NC(=O)c4c(C)cc(C)n(-c5ccc(F)cc5C)c4=O)cc3F)c2nc1OC` [Compound 298, N-[4-[(6,7-Dimethoxy-1,5-naphthyridin-4-yl)oxy]-3-fluorophenyl]-1-(4-fluoro-2-methylphenyl)-4,6-dimethyl-2-oxopyridine-3-carboxamide], the half-maximal inhibitory concentration (IC50) in assay [1], in assay [2], in assay [3] and in assay [4] was < 100 nM in each case.

On to `COc1cc2nccc(Oc3ccc(NC(=O)c4c(C)ccn(-c5ccc(F)cc5)c4=O)cc3)c2nc1OC` [Compound 299, N-[4-[(6,7-Dimethoxy-1,5-naphthyridin-4-yl)oxy]phenyl]-1-(4-fluorophenyl)-4-methyl-2-oxopyridine-3-carboxamide], for which the concentration for half-maximal inhibition (IC50) in assay [1], in assay [2], in assay [3] and in assay [4] was < 100 nM throughout.

Consider `COc1cnc2c(Oc3ccc(NC(=O)c4c(C)ccn(-c5ccc(F)cc5)c4=O)cc3)ccnc2c1` [Compound 300, 1-(4-Fluorophenyl)-N-[4-[(7-methoxy-1,5-naphthyridin-4-yl)oxy]phenyl]-4-methyl-2-oxopyridine-3-carboxamide], for which the IC50 is < 100 nM in assay [1], < 100 nM in assay [2], < 100 nM in assay [3] and 100 to 300 nM in assay [4].

On to `COCc1ncc(C(=O)Nc2ccc(Oc3ccnc4cc(OC)c(OC)nc34)c(F)c2)c(O)c1-c1ccc(F)cc1` [Compound 301, N-[4-[(6,7-Dimethoxy-1,5-naphthyridin-4-yl)oxy]-3-fluorophenyl]-5-(4-fluorophenyl)-4-hydroxy-6-(methoxymethyl)pyridine-3-carboxamide], for which the IC50 in assay [1], in assay [2], in assay [3] and in assay [4] was < 100 nM each time.

For the molecule `COc1ccc2nccc(Oc3ccc(NC(=O)c4c(C)nc(C)c(-c5ccc(F)cc5)c4O)cc3)c2n1` [Compound 340, 5-(4-fluorophenyl)-4-hydroxy-N-[4-[(6-methoxy-1,5-naphthyridin-4-yl)oxy]phenyl]-2,6-dimethylpyridine-3-carboxamide], the 50% inhibitory concentration (IC50) in assay [1], in assay [2], in assay [3] and in assay [4] was < 100 nM throughout.

Turning to `COc1ccc2nccc(Oc3ccc(NC(=O)c4cn(C(C)C)c(C)c(-c5ccc(F)cc5)c4=O)cc3)c2n1` [Compound 341, 5-(4-fluorophenyl)-N-[4-[(6-methoxy-1,5-naphthyridin-4-yl)oxy]phenyl]-6-methyl-4-oxo-1-propan-2-ylpyridine-3-carboxamide], the IC50 in assay [1] is > 300 nM; in assay [2] it was < 100 nM; in assay [3] it was < 100 nM; in assay [4], > 300 nM.

Turning to `COc1ccc2nccc(Oc3ccc(NC(=O)c4cnc(C)c(-c5ccc(F)cc5)c4O)cc3)c2n1` [Compound 342, 5-(4-fluorophenyl)-4-hydroxy-N-[4-[(6-methoxy-1,5-naphthyridin-4-yl)oxy]phenyl]-6-methylpyridine-3-carboxamide], the IC50 in assay [1] was < 100 nM; in assay [2], < 100 nM; in assay [3], < 100 nM; in assay [4], 100 to 300 nM.

`COc1ccc2nccc(Oc3ccc(NC(=O)c4ccc(C)n(-c5ccc(F)cc5)c4=O)cc3)c2n1` [Compound 343, 1-(4-fluorophenyl)-N-[4-[(6-methoxy-1,5-naphthyridin-4-yl)oxy]phenyl]-6-methyl-2-oxopyridine-3-carboxamide]: the IC50 in assay [1] is < 100 nM; in assay [2] it was < 100 nM; in assay [3] it was < 100 nM; in assay [4], 100 to 300 nM.

In the case of `COc1ccc2nccc(Oc3ccc(NC(=O)c4c(C)nc(C)c(-c5ccc(F)cc5)c4O)cc3F)c2c1` [Compound 345, N-[3-fluoro-4-(6-methoxyquinolin-4-yl)oxyphenyl]-5-(4-fluorophenyl)-4-hydroxy-2,6-dimethylpyridine-3-carboxamide], the IC50 is < 100 nM in assay [1], < 100 nM in assay [2], < 100 nM in assay [3] and 100 to 300 nM in assay [4].

For the molecule `COc1ccc2nccc(Oc3ccc(NC(=O)c4ccc(C)n(-c5ccc(F)cc5)c4=O)cc3F)c2c1` [Compound 346, N-[3-fluoro-4-(6-methoxyquinolin-4-yl)oxyphenyl]-1-(4-fluorophenyl)-6-methyl-2-oxopyridine-3-carboxamide], the 50% inhibitory concentration (IC50) in assay [1] is < 100 nM; in assay [2], < 100 nM; in assay [3], < 100 nM; in assay [4], 100 to 300 nM.

As to `COc1ccc2nccc(Oc3ccc(NC(=O)c4cnc(C)c(-c5ccc(F)cc5)c4O)cc3F)c2c1` [Compound 347, N-[3-fluoro-4-(6-methoxyquinolin-4-yl)oxyphenyl]-5-(4-fluorophenyl)-4-hydroxy-6-methylpyridine-3-carboxamide], the IC50 in assay [1] was < 100 nM; in assay [2] it was < 100 nM; in assay [3] it was < 100 nM; in assay [4] it was 100 to 300 nM.

As for `COCCOc1ccc2nccc(Oc3ccc(NC(=O)c4ccc(C)n(-c5ccc(F)cc5)c4=O)cc3F)c2n1` [Compound 350, N-[3-fluoro-4-[[6-(2-methoxyethoxy)-1,5-naphthyridin-4-yl]oxy]phenyl]-1-(4-fluorophenyl)-6-methyl-2-oxopyridine-3-carboxamide], the IC50 in assay [1] is < 100 nM; in assay [2], < 100 nM; in assay [3], < 100 nM; in assay [4] it was 100 to 300 nM.

For `Cc1ccc(C(=O)Nc2ccc(Oc3ccnc4ccc(OCCN5CCOCC5)nc34)c(F)c2)c(=O)n1-c1ccc(F)cc1` [Compound 351, N-[3-fluoro-4-[[6-(2-morpholin-4-ylethoxy)-1,5-naphthyridin-4-yl]oxy]phenyl]-1-(4-fluorophenyl)-6-methyl-2-oxopyridine-3-carboxamide], the IC50 in assay [1] was < 100 nM; in assay [2], < 100 nM; in assay [3], < 100 nM; in assay [4] it was > 300 nM.

With `Cc1ncc(C(=O)Nc2ccc(Oc3ccnc4ccc(OCCN5CCOCC5)nc34)c(F)c2)c(O)c1-c1ccc(F)cc1` [Compound 352, N-[3-fluoro-4-[[6-(2-morpholin-4-ylethoxy)-1,5-naphthyridin-4 yl]oxy]phenyl]-5-(4-fluorophenyl)-4-hydroxy-6-methylpyridine-3-carboxamide], the IC50 in assay [1] was < 100 nM; in assay [2], < 100 nM; in assay [3], < 100 nM; in assay [4] it was 100 to 300 nM.

For the molecule `Cc1ccc(C(=O)Nc2ccc(Oc3ccnc4ccc(OCCN(C)C)nc34)c(F)c2)c(=O)n1-c1ccc(F)cc1` [Compound 353, N-[4-[[6-[2-(dimethylamino)ethoxy]-1,5-naphthyridin-4-yl]oxy]-3-fluorophenyl]-1-(4-fluorophenyl)-6-methyl-2-oxopyridine-3-carboxamide], the IC50 in assay [1] is < 100 nM; in assay [2], < 100 nM; in assay [3], < 100 nM; in assay [4], > 300 nM.

For `Cc1nc(C)c(-c2ccc(F)cc2)c(O)c1C(=O)Nc1ccc(Oc2ccnc3ccc(OCCN(C)C)nc23)c(F)c1` [Compound 354, N-[4-[[6-[2-(dimethylamino)ethoxy]-1,5-naphthyridin-4-yl]oxy]-3-fluorophenyl]-5-(4-fluorophenyl)-4-hydroxy-2,6-dimethylpyridine-3-carboxamide], the IC50 in assay [1] is < 100 nM; in assay [2], < 100 nM; in assay [3] it was < 100 nM; in assay [4] it was 100 to 300 nM.
